pIC50: −log10 of the molar value.
Columns and labels:
human Nav1.5 [1] = target: T1, human Nav1.5 (Homo sapiens (Human), UniProt Q14524); test: Qpatch automated patch-clamp, peak Nav1.5 current inhibition, 5-Hz AF-like assay (holding potential -85 mV); assay type: cell-based; details: CHO-K1 cells stably expressing human Nav1.5, holding potential -85 mV, Table 5, read-out: Nav1.5 IC50 (5 Hz, AF Rate)
Outline: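 CHO-K1 cells stably expressing human Nav1.5, whole-cell automated patch-clamp at room temperature, CsF-based internal. Compounds pre-incubated 3 min each at ascending 0-30 μM; +10 to −85 mV ramp (150 ms) applied at 5 Hz for 12 s from −85 mV holding. IC50 from last-pulse peak current, vehicle-normalized for run-down.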

human Nav1.5 [2] = target: T1, human Nav1.5; test: Qpatch automated patch-clamp, peak Nav1.5 current inhibition, 1 Hz sinus rate, ventricular condition (holding potential -100 mV); assay type: cell-based; details: CHO-K1 cells stably expressing human Nav1.5, without ATX-II
Excerpt: Electrophysiology was used to measure the ionic currents in isolated living cells using automated patch-clamp recording, performed using an automated patch-clamp machine called Qpatch (Sophion Bioscience). Two different assay conditions were used to identify compounds with atrial-selective potential. The 5-Hz AF-like assay has more depolarized holding potential at −85 mV to mimic atrial resting membrane potential (RMP) and was used to identify compounds of strong rate-dependence. Active, rate-dependent compounds were then screened at 1 Hz (i.e., sinus rate) at the holding potential of −100 mV to mimic the ventricular scenario and help identify compounds with the largest potency separation or attenuation from the 5-Hz AF-like assay. Such compounds have the potential for treating AF without the QRS liability inherent to Class Ic drugs.
The sodium current conducted through a cell (via Nav1.5) or electrical signals were processed through a low-pass filter at 5 KHz, re-digitalized and acquired at 20 kHz. Series resistance was not compensated and leak subtraction was performed.
1 to 3 million Chinese Hamster Ovary cells (also known as CHO-K1) stably expressing human Nav1.5 were seeded into […] culture flasks with 25 mL medium (consisting of Gibco Dulbecco's Modified Eagle Medium as a base medium with 1% MEM non-essential amino acids, 400 μg/mL Geneticin, 5 μg/mL puromycin and 10% fetal bovine serum) 48-72 hours prior to the experiments. On the day of the experiment, cells were washed once with phosphate-buffered saline (also known as PBS; Gibco) detached with Detachin™ (Genlantis), and re-suspended in CHO—S-SFM II media (Gibco) at 200,000 cells/mL. The CHO—S-SFM II was replaced with assay solutions prior to the assays. Whole-cell currents were recorded at room temperature in the whole-cell configuration. The external aqueous assay solution (pH=7.4; Osm=307-315) contained the following (the concentration for each component is expressed in parentheses in mM): NaCl (140 mM), KCl (4 mM), CaCl2) (2 mM), MgCl2 (1 mM), 4-(2-hydroxyethyl)-1-piperazineethanesulfonic acid, also known as HEPES (10 mM), and glucose (5 mM). The internal aqueous assay solution (pH=7.2; Osm=292-295) contained the following (the concentration for each component is expressed in parentheses in mM): CsF (110 mM), CsCl (10 mM), NaCl (10 mM), HEPES (10 mM), and ethylene glycolbis(β-aminoethyl ether)-N,N,N′,N′-tetraacetic acid, also known as EGTA (10 mM).
To assess peak Nav1.5 current inhibition mimicking a ventricular condition at sinus rate with or without ATX-II (Nav1.5 IC50 (1 Hz, ATXII) (μM) or (1 Hz, Sinus Rate) (μM)), compounds were first prepared at 10 mM in DMSO, and cells were pre-incubated with test compounds at each concentration for 3 min. in an ascending order of 0, 0.37, 1.1, 3.3, 10 and 30 uM. In the assay with ATX-II (Alomone Labs), 50 nM ATX-II was included during the 3-min. compound incubation. A square pulse (−10 mV; 400 ms and a holding potential at −100 mV) was run at 1 Hz for 25 s until no further inhibition or Nav1.5 current change was observed. The percent inhibition (expressed as ([Iafter compound treatment/Ibefore compound treatment]×100%) is calculated by normalizing the peak current amplitude at the last pulse of each of the 6 compound concentrations by the amplitude before exposure to the test compound. The compiled data was further normalized by vehicle control (DMSO) to account for Nav1.5 current run-down, and IC50 was calculated by Matlab (MathWorks, USA).

human Nav1.5 [3] = target: T1, human Nav1.5; test: Qpatch automated patch-clamp, peak Nav1.5 current inhibition, 1 Hz with 50 nM ATX-II (holding potential -100 mV); assay type: cell-based; details: CHO-K1 cells stably expressing human Nav1.5, read-out: Nav1.5 IC50 (1 Hz, ATXII)
Outline: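 CHO-K1 cells stably expressing human Nav1.5, whole-cell recording at room temperature; 3-min pre-incubation at 0–30 uM ascending, with or without 50 nM ATX-II. Pulses to −10 mV (400 ms) from −100 mV at 1 Hz for 25 s; last-pulse peak current normalized to pre-compound and DMSO run-down, IC50 fitted.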

[4] = Hygroscopicity / water uptake of crystalline forms of Example 1; assay type: physicochemical; details: for hygroscopicity: crystalline form

T1 sequence (Q14524 whole entry): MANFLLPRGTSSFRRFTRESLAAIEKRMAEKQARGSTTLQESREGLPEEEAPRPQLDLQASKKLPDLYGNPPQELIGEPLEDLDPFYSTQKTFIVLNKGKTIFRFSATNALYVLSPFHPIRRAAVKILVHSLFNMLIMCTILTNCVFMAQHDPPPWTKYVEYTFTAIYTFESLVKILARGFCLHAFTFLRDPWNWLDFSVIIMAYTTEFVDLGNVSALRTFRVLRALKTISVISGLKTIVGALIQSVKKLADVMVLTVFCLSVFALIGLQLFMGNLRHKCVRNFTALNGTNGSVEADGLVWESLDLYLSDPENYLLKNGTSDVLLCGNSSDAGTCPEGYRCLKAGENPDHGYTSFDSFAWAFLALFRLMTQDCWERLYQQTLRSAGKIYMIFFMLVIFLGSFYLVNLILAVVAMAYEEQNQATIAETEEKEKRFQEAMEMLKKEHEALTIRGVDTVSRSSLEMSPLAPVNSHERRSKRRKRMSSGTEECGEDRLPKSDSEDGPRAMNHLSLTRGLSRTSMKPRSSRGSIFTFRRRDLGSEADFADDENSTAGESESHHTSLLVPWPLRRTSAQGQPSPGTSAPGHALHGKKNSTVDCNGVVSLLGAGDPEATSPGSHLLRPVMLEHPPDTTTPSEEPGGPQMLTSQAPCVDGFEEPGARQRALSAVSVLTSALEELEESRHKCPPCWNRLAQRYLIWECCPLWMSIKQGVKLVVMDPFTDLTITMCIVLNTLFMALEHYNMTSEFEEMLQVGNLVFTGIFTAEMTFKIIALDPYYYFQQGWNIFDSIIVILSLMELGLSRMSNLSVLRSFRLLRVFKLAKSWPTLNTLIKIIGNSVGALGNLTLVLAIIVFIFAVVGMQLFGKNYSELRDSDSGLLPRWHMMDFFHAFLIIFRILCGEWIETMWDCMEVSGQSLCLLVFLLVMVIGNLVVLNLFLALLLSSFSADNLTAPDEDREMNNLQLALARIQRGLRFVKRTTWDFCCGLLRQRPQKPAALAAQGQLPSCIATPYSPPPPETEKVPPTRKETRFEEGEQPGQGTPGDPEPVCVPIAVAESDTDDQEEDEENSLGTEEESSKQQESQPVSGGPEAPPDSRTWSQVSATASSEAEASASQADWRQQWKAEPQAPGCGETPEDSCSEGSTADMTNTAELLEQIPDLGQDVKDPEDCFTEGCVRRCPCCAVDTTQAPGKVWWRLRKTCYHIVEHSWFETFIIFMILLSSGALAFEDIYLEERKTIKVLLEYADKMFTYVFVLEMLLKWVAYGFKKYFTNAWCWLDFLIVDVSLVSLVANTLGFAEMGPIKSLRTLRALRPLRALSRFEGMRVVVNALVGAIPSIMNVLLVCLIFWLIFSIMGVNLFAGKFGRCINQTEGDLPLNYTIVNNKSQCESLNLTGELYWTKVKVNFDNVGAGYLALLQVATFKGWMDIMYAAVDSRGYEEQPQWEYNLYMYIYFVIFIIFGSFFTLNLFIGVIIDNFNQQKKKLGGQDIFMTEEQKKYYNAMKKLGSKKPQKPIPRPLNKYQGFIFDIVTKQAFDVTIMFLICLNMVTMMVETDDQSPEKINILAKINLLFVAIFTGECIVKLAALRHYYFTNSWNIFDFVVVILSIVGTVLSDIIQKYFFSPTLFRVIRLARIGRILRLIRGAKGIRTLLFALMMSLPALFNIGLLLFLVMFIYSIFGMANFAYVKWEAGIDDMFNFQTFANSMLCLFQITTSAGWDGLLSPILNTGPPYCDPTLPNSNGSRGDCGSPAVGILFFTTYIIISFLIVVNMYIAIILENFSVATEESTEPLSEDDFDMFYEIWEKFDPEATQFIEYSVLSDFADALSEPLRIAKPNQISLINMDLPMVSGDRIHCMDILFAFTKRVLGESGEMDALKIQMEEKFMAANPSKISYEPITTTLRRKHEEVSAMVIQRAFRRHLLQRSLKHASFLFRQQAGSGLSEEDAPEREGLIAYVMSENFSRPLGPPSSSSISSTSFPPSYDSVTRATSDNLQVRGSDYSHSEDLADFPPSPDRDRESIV

Row | reversible water uptake ([4]; at 90% relative humidity) | Compound | pIC50 (human Nav1.5 [1]) | pIC50 (human Nav1.5 [2]) | pIC50 (human Nav1.5 [3]) | hygroscopicity [4]
1 |  | CC(O)(CS(N)(=O)=O)c1nc(-c2nnn(Cc3cc(OC(F)(F)F)ccc3F)n2)ccc1F (single isomer, unassigned) [Example 44, (R or S)-2-(3-fluoro-6-(2-(2-fluoro-5-(trifluoromethoxy)benzyl)-2H-tetrazol-5-yl)pyridin-2-yl)-2-hydroxypropane-1-sulfonamide] | 5.34 | < 4.52 | 4.72 | 
2 |  | CC(O)(CS(N)(=O)=O)c1nc(-c2nnn(Cc3cc(OC(F)(F)F)ccc3F)n2)ccc1F (single isomer, unassigned) [Example 45, (R or S)-2-(3-fluoro-6-(2-(2-fluoro-5-(trifluoromethoxy)benzyl)-2H-tetrazol-5-yl)pyridin-2-yl)-2-hydroxypropane-1-sulfonamide] | 5.32 | < 4.52 | < 4.52 | 
3 |  | CC(O)(CS(N)(=O)=O)c1cccc(-c2nnn(Cc3cc(OC4CC4)ccc3F)n2)n1 (single isomer, unassigned) [Example 46, (R or S)-2-(6-(2-(5-cyclopropoxy-2-fluorobenzyl)-2H-tetrazol-5-yl)pyridin-2-yl)-2-hydroxypropane-1-sulfonamide] | 5.08 | < 4.52 | < 4.52 | 
4 |  | CC(O)(CS(N)(=O)=O)c1cccc(-c2nnn(Cc3cc(OC4CC4)ccc3F)n2)n1 (single isomer, unassigned) [Example 47, (R or S)-2-(6-(2-(5-cyclopropoxy-2-fluorobenzyl)-2H-tetrazol-5-yl)pyridin-2-yl)-2-hydroxypropane-1-sulfonamide] | 5.41 | 4.57 | 4.89 | 
5 |  | CC(C(O)c1cccc(-c2nnn(Cc3cc(OC(F)(F)F)ccc3F)n2)n1)S(N)(=O)=O (single isomer, unassigned) [Example 52, (JR or 1S,2R or 2S)-1-(6-(2-(2-fluoro-5-(trifluoromethoxy)benzyl)-2H-tetrazol-5-yl)pyridin-2-yl)-1-hydroxypropane-2-sulfonamide] | 5.54 | 4.31 | 4.66 | 
6 |  | C[C@](O)(CS(N)(=O)=O)c1cccc(-c2nnn(Cc3cc(OC(F)(F)F)ccc3F)n2)n1 [Example 1, (R)-2-(6-(2-(2-fluoro-5-(trifluoromethoxy)benzyl)-2H-tetrazol-5-yl)pyridin-2-yl)-2-hydroxypropane-1-sulfonamide] | 5.51 | 4.66 | 4.72 | 
7 | about 0.10% | C[C@](O)(CS(N)(=O)=O)c1cccc(-c2nnn(Cc3cc(OC(F)(F)F)ccc3F)n2)n1 [Modification A-1, (R)-2-(6-(2-(2-fluoro-5-(trifluoromethoxy)benzyl)-2H-tetrazol-5-yl)pyridin-2-yl)-2-hydroxypropane-1-sulfonamide] |  |  |  | not hygroscopic
8 |  | C[C@](O)(CS(N)(=O)=O)c1cccc(-c2nnn(Cc3cc(OC(F)(F)F)ccc3F)n2)n1 [Modification A-2, (R)-2-(6-(2-(2-fluoro-5-(trifluoromethoxy)benzyl)-2H-tetrazol-5-yl)pyridin-2-yl)-2-hydroxypropane-1-sulfonamide] |  |  |  | hygroscopic and shows gel formation at 70% relative humidity and above
9 |  | C[C@](O)(CS(N)(=O)=O)c1cccc(-c2nnn(Cc3cc(OC(F)(F)F)ccc3F)n2)n1 [Modification A-3, (R)-2-(6-(2-(2-fluoro-5-(trifluoromethoxy)benzyl)-2H-tetrazol-5-yl)pyridin-2-yl)-2-hydroxypropane-1-sulfonamide] |  |  |  | hygroscopic and shows gel formation at 70% relative humidity and above

From patent publication US20250034108A1, “SODIUM CHANNEL BLOCKERS” (NOVARTIS AG, priority 2023, published 2025)
